Data on 8 molecules can be found in US9931315B2, “Method of selectively inhibiting Ras-mediated tumor growth in humans” (ADT PHARMACEUTICALS, INC., priority 2014, dated 2018).

pIC50: −log10 of the molar value. Like-named read-outs stand apart in the source and are kept apart here.

One data set concerns A549 lung cancer cells. The data set can be described thus: Cell growth inhibition (CellTiter-Glo ATP assay), A549 cells with mutant K-Ras. The format is cell-based, human. The following applies: for pIC50: Homo sapiens, A549, 72 h, growth inhibition, three days treatment, K-Ras mutant lung cancer cells, read-out: A549 (Ras-activated) IC50; for Selectivity HT-29/A549: ratio IC50 HT-29 (WT Ras) / IC50 A549 (Ras-activated). As to the method: This example illustrates cell growth assays employed in the present invention. Cells used in such assays included A-549, HT-29, MDA-MB-231, Colo-205, Caco2, HCT-116, SW-480, and DLD-1 human cancer cells obtained from the American Type Culture Collection (ATCC).
(§1) Human tumor cells were cultured using standard methods in RPMI-1640 growth medium supplemented with 5% fetal bovine serum (FBS). Normal rat kidney (NRK) and Ki-Ras transformed NRK cells (K-NRK) were obtained from ATCC, and were cultured according to supplier recommendations. CellTiter-Glo ATP cell growth assay reagents were obtained from Promega and used according to the manufacturer's protocol. Inhibitors of EGFR, Raf, and MEK were obtained from Selleck Chemicals. Cells were plated at a density of 5,000 cells per well in 96-well microplates or 1,250 cells per well in 384-well plates, and allowed to attach for at least 4 h. Test compounds were dissolved in dimethyl sulfoxide (DMSO), and this working stock was further diluted in growth medium for addition to cell cultures. Serial dilutions of the test compound were prepared in growth medium containing an equal amount of DMSO not exceeding 0.2% final concentration. Each compound concentration was tested in at least 3 separate samples per cell line. At the end of a 3-day treatment period, growth inhibition was analyzed using a bioluminescent assay of ATP concentration (Promega CellTiter-Glo) according to the manufacturer's protocol. Resulting luminescence was measured using the luminescence cartridge of the Molecular Devices Spectramax Paradigm microplate reader. Relative growth inhibition for each sample was determined by comparison with the values obtained for vehicle treated control samples. Growth inhibition values were plotted with the GraphPad Prism5 software using the 4-parameter logistic fit to obtain IC50 values, which corresponds to the growth inhibitory potency of the compound.
(§2) This example illustrates effects of exemplary compounds of the present invention on cancer cells having activated or mutated Ras compared to wild-type (WT) Ras. […] A549 lung cancer cells, which harbor a mutation in the K-Ras oncogene were treated for three days with the compounds.
In general terms: ATP-based viability assays read luminescence as a measure of living cells.

For another data set, the system named is HT-29 colon cancer cells. The data set can be described thus: Cell growth inhibition (CellTiter-Glo ATP assay), HT-29 cells with wild-type Ras. The class given is cell-based, human. As to the method: (§3) This example illustrates cell growth assays employed in the present invention.
as §1, with “Normal” for “Human tumor cells were cultured using standard methods in RPMI-1640 growth medium supplemented with 5% fetal bovine serum (FBS). Normal”
as §2
(§4) Cells were seeded in 384-well plates and allowed to attach. Ten-fold serial dilutions of compounds were tested. Each compound concentration was tested in at least 3 separate samples per cell line.

For the next data set, the system named is SW-480 cells. The data set can be described thus: Cell growth inhibition (CellTiter-Glo), SW-480 colorectal cells with activated Ras. The format is cell-based, human. The following applies: for pIC50: 384-well plates; for Selectivity Caco-2/SW-480: ratio IC50 Caco-2 (WT Ras) / IC50 SW-480 (Ras activated). As for the experimental part: as §3
as §1, with “Normal” for “Human tumor cells were cultured using standard methods in RPMI-1640 growth medium supplemented with 5% fetal bovine serum (FBS). Normal”
The growth inhibitory activity of the compounds was tested using the CellTiter-Glo assay. Cells were seeded in 384-well plates and allowed to attach, then ten-fold serial dilutions of compounds were tested. Each concentration was tested in at least 3 separate samples per cell line.
as §4

For another data set, the system named is Caco-2 cells. The data set can be described thus: Cell growth inhibition (CellTiter-Glo), Caco-2 colorectal cells with wild-type Ras. The class given is cell-based, human. The following applies: 384-well plates.
The subject of data set [1] is HCT-116 colon tumor cells. Kind of data set: Cell growth inhibition (CellTiter-Glo), HCT-116 colon tumor cells expressing mutant Ras. The format is cell-based, human. The following applies: for HT-29/HCT-116 selectivity values: ratio IC50 HT-29 (WT Ras) / IC50 HCT-116 (mutant Ras), 5000 cells/well, 96-well plates. As for the experimental part:
This example illustrates cell growth assays employed in the present invention. […] Normal rat kidney (NRK) and Ki-Ras transformed NRK cells (K-NRK) were obtained from ATCC, and were cultured according to supplier recommendations. CellTiter-Glo ATP cell growth assay reagents were obtained from Promega and used according to the manufacturer's protocol. Inhibitors of EGFR, Raf, and MEK were obtained from Selleck Chemicals. Cells were plated at a density of 5,000 cells per well in 96-well microplates or 1,250 cells per well in 384-well plates, and allowed to attach for at least 4 h. Test compounds were dissolved in dimethyl sulfoxide (DMSO), and this working stock was further diluted in growth medium for addition to cell cultures. Serial dilutions of the test compound were prepared in growth medium containing an equal amount of DMSO not exceeding 0.2% final concentration. Each compound concentration was tested in at least 3 separate samples per cell line. At the end of a 3-day treatment period, growth inhibition was analyzed using a bioluminescent assay of ATP concentration (Promega CellTiter-Glo) according to the manufacturer's protocol. Resulting luminescence was measured using the luminescence cartridge of the Molecular Devices Spectramax Paradigm microplate reader. Relative growth inhibition for each sample was determined by comparison with the values obtained for vehicle treated control samples. […] This example illustrates use of well-established human colon tumor cell lines with widely divergent Ras activation status to determine selectivity values for exemplary compounds of the present invention. […] Cells were plated at 5000 cells/well in 96-well plates, and viable cell numbers were measured using the Cell Titer Glo ATP luminescence assay (Promega). […] Cells were seeded in 384-well plates and allowed to attach. Ten-fold serial dilutions of compounds were tested. Each compound concentration was tested in at least 3 separate samples per cell line.

Another data set deals with DLD-1 cells. Kind of data set: Cell growth inhibition (CellTiter-Glo), DLD-1 colorectal cells. The format is cell-based, human. The following applies: known Ras pathway inhibitors, 384-well plates, Table 4.
The subject of another data set is COLO-205 cells. Kind of data set: Cell growth inhibition (CellTiter-Glo), COLO-205 colorectal cells. The class given is cell-based, human. The following applies: known Ras pathway inhibitors, 384-well plates, Table 4.
Data set [2] relates to panel of colorectal cancer cell lines. The data set can be described thus: Growth inhibition of known Ras pathway inhibitors across the colorectal cell line panel, pattern versus Ras activation. The following applies: HCT-116, DLD-1, SW-480, Caco-2, HT-29, COLO-205 panel. The class given is cell-based, human. As for the experimental part: This example illustrates non-selective growth inhibition with known Ras pathway inhibitors which are not compounds of the present invention. In particular, the growth inhibitory activity of commercially available compounds which are active in the Ras signal transduction pathway were tested in the same panel of cell lines using the CellTiter-Glo assay. Cells were seeded in 384-well plates and allowed to attach. Ten-fold serial dilutions of compounds were tested. Each compound concentration was tested in at least 3 separate samples per cell line.

Data set [3] concerns cells expressing oncogenic H-Ras. The following applies: NIH probe report, cited from earlier work.
Where [4] appears, read: Homo sapiens, HT-29, growth inhibition, colon cancer cells with wild-type Ras, Table 2, read-out: HT-29 (WT Ras) IC50.
The mark [5] stands for this setting: Homo sapiens, SW480, growth inhibition, Table 3, read-out: SW-480 (Ras Activated IC50).
Setting [6] is: Homo sapiens, Caco-2, growth inhibition, Table 3, read-out: Caco-2 (WT Ras) IC50.

By pIC50 is commonly meant the IC50 on a negative log10 scale, so that one unit is a factor of ten. Consider `COc1ccc2c(c1)C(CC(=O)NCc1ccco1)=C(C)/C2=C/c1cc(OC)c(O)c(OC)c1` [Compound 006, (Z)—N-(furan-2-ylmethyl)-2-(1-(4-hydroxy-3,5-dimethoxybenzylidene)-5-methoxy-2-methyl-1H-inden-3-yl)acetamide], for which the pIC50 in the data set with A549 lung cancer cells is 7.96; in the data set on HT-29 colon cancer cells (setting [4]), 5.09; in the data set on SW-480 cells (setting [5]), 8.55; with Caco-2 cells (setting [6]), 6.37. Also, in the data set with A549 lung cancer cells, the “Selectivity HT-29/A549” value worked out at 739. The “Selectivity Caco-2/SW-480” value with SW-480 cells was 150. The HT-29/HCT-116 selectivity values in data set [1] is recorded as 43.
`COc1cc(/C=C2/C(C)=C(CC(=O)NCc3ccco3)c3cc(F)ccc32)cc(OC)c1O` [Compound 007, (Z)-2-(5-fluoro-1-(4-hydroxy-3,5-dimethoxybenzylidene)-2-methyl-1H-inden-3-yl)-N-(furan-2-ylmethyl)acetamide]: the negative logarithm of the IC50 (pIC50) in the data set on A549 lung cancer cells was 9.07; in the data set with HT-29 colon cancer cells (setting [4]), 6.55; in the data set with SW-480 cells (setting [5]), 9.43; in the data set on Caco-2 cells (setting [6]), 8.71. The “Selectivity HT-29/A549” value in the data set with A549 lung cancer cells is given as 326. Also, in the data set on SW-480 cells, the “Selectivity Caco-2/SW-480” value was determined as 5. Besides, the HT-29/HCT-116 selectivity values in data set [1] is reported as 92.
`COc1ccc2c(c1)C(CC(=O)NCc1cccnc1)=C(C)/C2=C/c1cc(OC)c(O)c(OC)c1` [Compound 009, (Z)-2-(1-(4-hydroxy-3,5-dimethoxybenzylidene)-5-methoxy-2-methyl-1H-inden-3-yl)-N-(pyridin-3-ylmethyl)acetamide]: the pIC50 in the data set on A549 lung cancer cells is 6.45; in the data set on HT-29 colon cancer cells (setting [4]), 5.32; in the data set on SW-480 cells (setting [5]), 6.65; in the data set with Caco-2 cells (setting [6]), 5.58. Besides, in the data set with A549 lung cancer cells, the “Selectivity HT-29/A549” value worked out at 14. Further, the “Selectivity Caco-2/SW-480” value in the data set on SW-480 cells was determined as 12.
Consider `COc1cc(/C=C2/C(C)=C(CC(=O)NCc3ccccn3)c3cc(F)ccc32)cc(OC)c1O` [Compound 010, (Z)-2-(5-fluoro-1-(4-hydroxy-3,5-dimethoxybenzylidene)-2-methyl-1H-inden-3-yl)-N-(pyridin-2-ylmethyl)acetamide], for which the pIC50 was 6.77 in the data set on A549 lung cancer cells, 6.15 with HT-29 colon cancer cells (setting [4]), 8.68 in the data set on SW-480 cells (setting [5]) and 7.47 with Caco-2 cells (setting [6]). Further, the “Selectivity HT-29/A549” value in the data set on A549 lung cancer cells is reported as 4. The “Selectivity Caco-2/SW-480” value in the data set on SW-480 cells is listed as 16. Besides, the HT-29/HCT-116 selectivity values in data set [1] is 141.
For the molecule `COc1cc(/C=C2/C(C)=C(CC(=O)NCc3cccnc3)c3cc(F)ccc32)cc(OC)c1O` [Compound 011, (Z)-2-(5-fluoro-1-(4-hydroxy-3,5-dimethoxybenzylidene)-2-methyl-1H-inden-3-yl)-N-(pyridin-3-ylmethyl)acetamide], the pIC50 is 7.82 in the data set with A549 lung cancer cells, 5.53 in the data set on HT-29 colon cancer cells (setting [4]), 7.67 in the data set with SW-480 cells (setting [5]) and 7.32 in the data set with Caco-2 cells (setting [6]). For the same molecule, in the data set on A549 lung cancer cells, the “Selectivity HT-29/A549” value is 196. In addition, the “Selectivity Caco-2/SW-480” value with SW-480 cells stood at 2. Moreover, the HT-29/HCT-116 selectivity values in data set [1] was 168.
In the case of `O=C1Nc2ccc(I)cc2/C1=C/c1cc(Br)c(O)c(Br)c1` [GW5074, reference compound], the pIC50 with HT-29 colon cancer cells (known Ras pathway inhibitors, 384-well plates, Table 4, read-out: HT-29 IC50) is 4.72; with SW-480 cells (known Ras pathway inhibitors, Table 4, read-out: SW-480 IC50), 5.09; in the data set on Caco-2 cells (known Ras pathway inhibitors, Table 4, read-out: Caco-2 IC50), under 4.70; in data set [1] (known Ras pathway inhibitors, 384-well plates, Table 4) it was 4.80; in the data set with DLD-1 cells it was 5.11; in the data set with COLO-205 cells, 5.15. The “selectivity with regard to Ras activation” value in data set [2] is recorded as “did not show selectivity”.
As for `Cc1onc(C(=O)N2CCN(C(c3ccc(Cl)cc3)c3ccc(Cl)cc3)CC2)c1[N+](=O)[O-]` [ML210], the “selectivity versus cells lacking oncogenic Ras” value in data set [3] is on record as 4 fold. In addition, in [3] (read-out: IC50, growth of cells expressing mutant Ras), the pIC50 was 7.15.
Molecule `Cn1cnc2c(F)c(Nc3ccc(Br)cc3Cl)c(C(=O)NOCCO)cc21` [Selumetinib] showed a pIC50 with DLD-1 cells (Homo sapiens, DLD-1) of 4.69.
